Experimental data as given in patent US20100061994A1, “MEDICAL USES OF 39-DESMETHOXYRAPAMYCIN AND ANALOGUES THEREOF” (priority 2005, published 2010).
Values joined by “and” are separate entries in the source; they are usually repeats but may differ in a detail not shown here. Equal values may be shown once. Read-outs that look alike come from different tables or passages of the source.

Columns and labels:
EAE = experiment: Experimental allergic encephalomyelitis (EAE) model of multiple sclerosis; type: in vivo, male Lewis rats; settings: rat, in vivo
FKBP12 = FKBP12 (Homo sapiens, UniProt P62942); experiment: In vitro FKBP12 binding assay (GdnHCl unfolding)
Sequence of FKBP12 (P62942 whole entry, species assumed): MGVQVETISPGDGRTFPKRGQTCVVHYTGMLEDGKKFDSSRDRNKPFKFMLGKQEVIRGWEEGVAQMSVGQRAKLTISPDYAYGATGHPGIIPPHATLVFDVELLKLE
Excerpt: FKBP12 reversibly unfolds in the chemical denaturant guandinium hydrochloride (GdnHCl) and the unfolding can be monitored by the change in the intrinsic fluorescence of the protein (Main et al, 1998). Ligands which specifically bind and stabilise the native state of FKBP12 shift the denaturation curve such that the protein unfolds at higher concentrations of chemical denaturant (Main et al, 1999). From the difference in stability, the ligand-binding constant can be determined using equation 1.
where ΔGapp is the apparent difference in free energy of unfolding between free and ligand-bound forms, ΔGD−N^H^2^O is the free energy of unfolding in water of free protein, [L] the concentration of ligand and kd the dissociation constant for the protein-ligand complex (Meiering et al, 1992). The free energy of unfolding can be related to the midpoint of the unfolding transition using the following equation: […]
where mD−N is a constant for a given protein and given denaturant and which is proportional to the change in degree of exposure of residues on unfolding (Tanford 1968 and Tanford 1970), and [D]50% is the concentration of denaturant corresponding to the midpoint of unfolding.
where <mD−N> is the average m-value of the unfolding transition and Δ[D]50% the difference in midpoints for the rapamycin-FKBP12 unfolding transition and unknown-ligand-FKBP12 complex unfolding transition. Under conditions where [L]>Kd, then, ΔΔGD−N, can be related to the relative Kds of the two compounds through equation 4: […]

[1] = Pharmacokinetic analysis Protocol 1 (blood and brain); settings: female, CD1, mouse, 3 mg/kg
Procedure: The test compounds were prepared in a vehicle consisting of 4% Ethanol, 5% Tween-20, 5% polyethyleneglycol 400 in 0.15M NaCl. A single dbse of 10 mg/kg p.o. or 3 mg/kg i.v. was administered to groups of female CD1 mice (3 mice for each compound per time point). At 0 min, 4 min, 15 min, 1 h, 4 h, and 24 h groups were sacrificed and the blood and the brain were collected from each mouse for further analysis.
The brain samples were snap frozen in liquid nitrogen and stored at −20° C. A minimum of 0.2 mL of whole blood from each animal was collected in tubes containing ethylene diamine tetra-acetic acid (EDTA) as anticoagulant, thoroughly mixed, and stored at −20° C.
Analysis was performed by ASI Limited, (St George's Hospital Medical School, London). The concentration of the test compound in the blood and brain samples supplied was determined by HPLC with MS detection. Control, test compound free, blood samples were obtained from Harlan Sera-Lab Limited, (Loughborough, England). Time zero brain samples were supplied as control, test compound free, brain samples.
One hemisphere of each brain was homogenized with 5 mL water.
The control or test sample of mouse brain or blood (0.05 mL), internal standard solution (0.1 mL), 5% Zinc sulphate solution (0.5 mL), and acetone (0.5 mL) were pipetted into a 2 mL polypropylene tube (Sarstedt Limited, Beaumont Leys, Leicester, UK) and the contents were then mixed for a minimum of 5 minutes (IKA-Vibrax-VXR mixer, Merck (BDH) Limited, Poole Dorset, UK). The tubes were then centrifuged in a microfuge for a minimum of 2 minutes. The solvent layer was decanted into a 4.5 mL polypropylene tube containing sodium hydroxide (0.1M, 0.1 mL) and methyl-tert-butyl ether (MTBE, 2 mL). The tube was then mixed for a minimum of 5 minutes (IKA-Vibrax-VXR mixer) and then centrifuged at 3500 rpm for 5 minutes. The solvent layer was transferred to a 4.5 mL conical polypropylene tube, placed in a SpeedVac® and evaporated to dryness.
The dried extracts were reconstituted with 0.15 mL 80% methanol and mixed for a minimum of 5 minutes (IKA-Vibrax-VXR mixer) and centrifuged at 3500 rpm for 5 minutes. The extract was transferred to auto sampler tubes (NLG Analytical, Adelphi Mill, Bollington, Cheshire, UK) and placed into the auto-sampler tray which was set at ambient temperature. The auto-sampler was programmed to inject a 0.03 mL aliquot of each extract onto the analytical column.
The AUC for each compound in blood or in brain tissue was calculated using Kinetica 4.4 (InnaPhase Corporation), using a non-compartmental model and the trapezoidal method for AUC calculation.
The partition coefficient (Ri) for each compound after p.o. and i.v. administration was calculated as shown below:
The partition coefficient (R) for each compound after i.v. administration was calculated as shown below:

Caco-2 permeation assay = settings: human, Caco-2, pH 7.4
Procedure: (§1) Confluent Caco-2 cells (Li, A. P., 1992; Grass, G. M., et al., 1992, Volpe, D. A., et al., 2001) in a 24 well Corning Costar Transwell format were provided by In Vitro Technologies Inc. (IVT Inc., Baltimore, Md., USA). The apical chamber contained 0.15 mL Hank's balanced buffer solution (HBBS) pH 7.4, 1% DMSO, 0.1 mM Lucifer Yellow. The basal chamber contained 0.6 mL HBBS pH 7.4, 1% DMSO. Controls and tests were incubated at 37° C. in a humidified incubator, shaken at 130 rpm for 1 h. Lucifer Yellow permeates via the paracellular (between the tight junctions) route only, a high Apparent Permeability (Papp) for Lucifer Yellow indicates cellular damage during assay and all such wells were rejected. […] Compounds were tested in a uni- and bi-directional format by applying compound to the apical or basal chamber (at 0.01 mM). Compounds in the apical or basal chambers were analysed by HPLC-MS (Method A, see Materials & Methods). Results were expressed as Apparent Permeability, Papp, (nm/s) and as the Flux Ratio (A to B versus B to A).
(§2) [formula] • Volume Acceptor: 0.6 ml (A>B) and 0.15 ml (B>A) • Area of monolayer: 0.33 cm2 • Δtime: 60 min
(§3) A positive value for the Flux Ratio indicates active efflux from the apical surface of the cells.

[2] = Human Liver Microsomal (HLM) stability assay; type: in vitro ADME; settings: 0.001 mM, 0.25 mg/mL protein, NADPH, 37° C.
Procedure: Liver homogenates provide a measure of a compounds inherent vulnerability to Phase I (oxidative) enzymes, including CYP450s (e.g. CYP2C8, CYP2D6, CYP1A, CYP3A4, CYP2E1), esterases, amidases and flavin monooxygenases (FMOs).
The half life (T½) of test compounds was determined, on exposure to Human Liver Microsomes, by monitoring their disappearance over time by LC-MS. Compounds at 0.001 mM were incubated at for 40 min at 37° C., 0.1 M Tris-HCl, pH 7.4 with human microsomal sub-cellular fraction of liver at 0.25 mg/mL protein and saturating levels of NADPH as co-factor. At timed intervals, acetonitrile was added to test samples to precipitate protein and stop metabolism. Samples were centrifuged and analysed for parent compound using analytical Method A (see Materials & Methods).

Caco-2 cells = experiment: Caco-2 permeation assay; settings: 0.01 mM
Procedure: as §1, §2, §3

[3] = relative to literature Kd of rapamycin 0.2 nM

Q: Which results are given for `O=P1(N(CCCl)CCCl)NCCCO1` (centres unmarked) [Cyclophosphamide, reference compound]?
A: Cumulative score Mean ± St Dev. (EAE): 33 ± 14.1 and 37 ± 26.6; Duration (days) Mean ± St Dev. (EAE): 13 ± 3.4 days and 15 ± 3.2 days; Onset Mean ± St Dev. (EAE): 13 ± 2.6 and 11 ± 1.1

Q: For `CO[C@H]1CC2CC[C@@H](C)[C@@](O)(O2)C(=O)C(=O)N2CCCC[C@H]2C(=O)O[C@H]([C@@H](C)CC2CCC(O)CC2)CC(=O)[C@@H](C)/C=C(\C)[C@H](O)[C@H](O)C(=O)[C@@H](C)C[C@H](C)/C=C/C=C/C=C/1C` (some centres unmarked) [27-O-desmethyl-39-desmethoxyrapamycin], which Kd (FKBP12; [3]) is on record?
A: 0.8 nM

Q: What about the Kp ([1]; brain / whole blood, intravenous) of the same molecule?
A: 4.56

Q: What about the AUC ([1]; whole blood, iv) of the same molecule?
A: 1850 ng·h/mL

Q: What about the Papp at 1 h, 0.01 mM (Caco-2 permeation assay) of the same molecule?
A: 0.4 ×10⁻⁶ cm/s

Q: And the efflux ratio at 1 h, 0.01 mM (Caco-2 permeation assay)?
A: 91

Q: What about the half-life at 0.001 mM ([2]; human, liver microsomes, pH 7.4, read-out: HLM stability: T½ min) of the same molecule?
A: 27 min

Q: For `COC1CC2CCC(C)C(O)(O2)C(=O)C(=O)N2CCCCC2C(=O)OC(C(C)CC2CCC(O)CC2)CC(=O)C(C)C=C(C)C(O)CC(=O)C(C)CC(C)C=CC=CC=C1C` (centres unmarked) [27-desmethoxy-39-desmethoxy rapamycin], which Kd (FKBP12) is on record?
A: 160 nM

Q: With “16-O-desmethyl-27-O-desmethyl-39-desmethoxyrapamycin” as the molecule, how does the Kd (FKBP12; [3]) read?
A: 101 nM

Q: What about the “Caco-2: Efflux Ratio” value (Caco-2 cells; bi-directional format) of the same molecule?
A: 37

Q: And the “Caco-2: Papp” value (Caco-2 cells; pH 7.4, 1 h)?
A: 1.3 ×10⁻⁶ cm/s

Q: What about the “HLM stability: T½ min” value [2] of the same molecule?
A: 47 min
